The results in this text go back to patent US6221865A, “Inhibitors of protein isoprenyl transferases” (priority 1998, dated 2001).

Counter-ions that a name gives are not always drawn.

One test deals with T1, protein farnesyltransferase (Rattus norvegicus, UniProt Q02293+Q04631).
T1 construct: The enzyme is purified according to Reiss, Y., et al., Cell, 62: 81-88 (1990), utilizing steps one through three; from tissue; host or cells: rat brain
T1 sequence (Q02293 whole entry, one chain of several): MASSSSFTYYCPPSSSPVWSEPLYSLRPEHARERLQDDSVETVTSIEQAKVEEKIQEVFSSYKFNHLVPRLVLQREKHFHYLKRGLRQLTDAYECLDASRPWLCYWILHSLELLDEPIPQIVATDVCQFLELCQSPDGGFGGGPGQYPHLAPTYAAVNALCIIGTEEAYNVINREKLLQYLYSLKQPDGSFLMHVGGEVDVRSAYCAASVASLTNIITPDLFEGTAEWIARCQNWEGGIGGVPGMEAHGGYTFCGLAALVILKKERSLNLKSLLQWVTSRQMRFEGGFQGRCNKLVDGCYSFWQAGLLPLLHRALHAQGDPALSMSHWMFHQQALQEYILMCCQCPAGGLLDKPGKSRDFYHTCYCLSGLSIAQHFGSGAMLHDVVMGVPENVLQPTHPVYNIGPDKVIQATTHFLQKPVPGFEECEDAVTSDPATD
The test is described as follows: Inhibition of farnesyltransferase (scintillation proximity assay, rat brain enzyme, biotin-K Ras B fragment substrate). The format is biochemical. Particulars: 1 × 10^-5 M (Table 1). Summed up: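 Enzyme from rat brain, partly purified (steps one to three), assayed by SPA kit using 0.1 mM final biotin-K Ras B peptide as prenyl acceptor rather than biotin-lamin. Activity given as percent inhibition.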
For orientation: Scintillation proximity formats need no separation of bound from free tracer.
As to `CSCC[C@H](NC(=O)c1ccc(CNc2ccccc2N(C)C)cc1-c1ccccc1)C(=O)O` [Example 672], the “% inhibition of farnesyltransferase at 1 × 10^-5 M” value is reported as 48%.
Regarding `CSCC[C@H](NC(=O)c1ccc(CNc2cccc(CC(=O)O)c2)cc1-c1ccccc1)C(=O)O` [Example 684], the “% inhibition of farnesyltransferase at 1 × 10^-5 M” value turned out to be 48%.
The same measure, in the same setting: then `COc1cc2c(cc1OC)C(CNCc1ccc(C(=O)N[C@@H](CCSC)C(=O)O)c(-c3ccccc3)c1)=CC(C1CCCCC1)C2` (stereo partly shown) [Example 659], with 55%; and `CSCC[C@H](NC(=O)c1ccc(CNc2ccc(C(=O)c3ccccc3)cc2)cc1-c1ccccc1)C(=O)O` [Example 702], with 79%.
On the same count and under the same terms, under `COc1ccc(Br)c(C(=O)Nc2ccc(C(=O)N[C@@H](CCSC)C(=O)O)c(-c3ccccc3)c2)c1` [Example 754] stands 40%.
Same read-out and setting: under `CSCC[C@H](NC(=O)c1ccc(CNc2cccc(CCC(=O)O)c2)cc1-c1ccccc1)C(=O)O` [Example 685] stands 55%.

The same test, now with this note: 1 × 10^-6 M (Table 2).
`CSCC[C@H](NC(=O)c1ccc(CN(CCc2ccccc2)Cc2ccccc2)cc1-c1ccccc1C)C(=O)O` [Example 513]: the “% inhibition of farnesyltransferase at 1 × 10^-6 M” value (“% inhibition … at 1 × 10^-6 M” below) is recorded as 96%.
On to `CSCC[C@H](NC(=O)c1ccc(NC[C@@H]2CSCN2)cc1-c1ccccc1)C(=O)O.Cl` [Example 166], for which the “% inhibition … at 1 × 10^-6 M” value is 97%.
Still for that read-out and setting: under `CCSC[C@H](CC1CCCCC1)NCc1ccc(C(=O)N[C@@H](CCSC)C(=O)O)c(-c2ccccc2C)c1` [Example 403] stands 99%; under `CSCC[C@H](NC(=O)c1ccc(NC(=O)OCc2cncs2)cc1-c1ccccc1C)C(=O)O` [Example 902], 85%.
Still for that read-out and setting: under `CSCC[C@H](NC(=O)c1ccc(NCC2CNCCN2)cc1-c1ccccc1)C(=O)O` (stereo partly shown) [Example 286] stands 84%; under `CCOC[C@H](CC1CCCCC1)OCc1ccc(C(=O)N[C@@H](CCSC)C(=O)O)c(-c2ccccc2C)c1` [Example 525], 99%; under `CSCC[C@H](NC(=O)c1ccc(NC(=O)c2cnccc2C(F)(F)F)cc1-c1ccccc1C)C(=O)O` [Example 481], 95%.
Still for that read-out and setting: then `CSCC[C@H](NC(=O)c1ccc(CNCCSc2ccccc2)cc1-c1ccccc1)C(=O)O` [Example 667], with 83%; and `CSCC[C@H](NC(=O)c1ccc(SCCc2ccccc2)cc1-c1ccccc1C)C(=O)O` [Example 498], with 98%; and `CSCC[C@H](NC(=O)c1ccc(CN(CCCc2ccccc2)c2ccccc2)cc1-c1ccccc1C)C(=O)O` [Example 508], with 95%.
As for `COc1ccccc1CNCc1ccc(C(=O)N[C@@H](CCSC)C(=O)O)c(-c2ccccc2)c1` [Example 650], the “% inhibition … at 1 × 10^-6 M” value amounted to 68%.
On the same count and under the same terms, under `CSCC[C@H](NC(=O)c1ccc(CSCc2ccc(C)cc2)cc1-c1ccccc1C)C(=O)[O-].[Li+]` [Example 556] stands 99%.
As to `CSCC[C@H](NC(=O)c1ccc(CN(CCO)Cc2ccccc2)cc1-c1ccccc1)C(=O)O` [Example 515], the “% inhibition … at 1 × 10^-6 M” value is listed as 72%.
For the molecule `CSCC[C@H](NC(=O)c1ccc(CNc2cccc(I)c2)cc1-c1ccccc1)C(=O)O` [Example 677], the “% inhibition … at 1 × 10^-6 M” value came out at 37%.
The same measure, in the same setting: then `CSCC[C@H](NC(=O)c1ccc(CN(CCc2ccccc2)c2ccccc2)cc1-c1ccccc1C)C(=O)O` [Example 507], with 96%.

Staying with this test, now noted: 1 × 10^-7 M (Table 3).
Regarding `CSCC[C@H](NC(=O)c1ccc(COCc2cnc(C(C)(C)C)s2)cc1-c1ccccc1C)C(=O)[O-].[Li+]` [Example 895], the “% inhibition of farnesyltransferase at 1 × 10^-7 M” value (shortened to “% inhibition … at 1 × 10^-7 M”) was found to be 92%.
Same read-out and setting: under `CSCC[C@H](NC(=O)c1ccc(CNCCc2c[nH]c3ccccc23)cc1-c1ccccc1C)C(=O)O` [Example 519] stands 89%; under `CSCC[C@H](NC(=O)c1ccc(CSc2nc(C)cc(C)n2)cc1-c1ccccc1C)C(=O)O` [Example 743], 51%; under `CSCC[C@H](NC(=O)c1ccc(COCc2ccc(-c3ccc(F)cc3)o2)cc1-c1ccc(F)cc1Cl)C(=O)[O-].[Li+]` [Example 869], 92%.
As for `CSCC[C@H](NC(=O)c1ccc(CSc2ccccc2C(C)C)cc1-c1ccccc1C)C(=O)O` [Example 739], the “% inhibition … at 1 × 10^-7 M” value stood at 83%.
Regarding `CSCC[C@H](NC(=O)c1ccc(CNc2ccc(Oc3ccccc3)cc2)cc1-c1ccccc1C)C(=O)O` [Example 864], the “% inhibition … at 1 × 10^-7 M” value amounted to 84%.
Same read-out and setting: under `CSCC[C@H](NC(=O)c1ccc(CN(c2ccccc2)S(=O)(=O)c2ccccc2)cc1-c1ccccc1C)C(=O)O` [Example 769] stands 90%; under `CSCC[C@H](NC(=O)c1ccc(COCc2ccc(C)cc2)cc1-c1ccccc1C)C(=O)[O-].[Li+]` [Example 579], 92%; under `CSCC[C@H](NC(=O)c1ccc(CN[C@H](CSC(C)(C)C)CC2CCCCC2)cc1-c1ccccc1C)C(=O)O` [Example 622], 95%.
`CCSC[C@H](CC1CCCCC1)N(Cc1ccc(C(=O)N[C@@H](CCSC)C(=O)O)c(-c2ccccc2C)c1)C(C)=O` [Example 947]: the “% inhibition … at 1 × 10^-7 M” value worked out at 79%.
Same read-out and setting: under `CSCC[C@H](NC(=O)c1ccc(COC(Cc2ccccc2)c2ccco2)cc1-c1ccccc1C)C(=O)[O-].[Li+]` (stereo partly shown) [Example 534] stands 84%.
Still for that read-out and setting: under `CSCC[C@H](NC(=O)c1ccc(COCc2cnc(-c3cccc(Cl)c3)o2)cc1-c1ccccc1C)C(=O)[O-].[Li+]` [Example 893] stands 87%.

Still in this test, the particulars now being: 1 × 10^-8 M (Table 4).
`CSCC[C@H](NC(=O)c1ccc(CN(CCC2CCCCC2)Cc2cncs2)cc1-c1ccccc1C)C(=O)O` [Example 986]: the “% inhibition of farnesyltransferase at 1 × 10^-8 M” value came to 95%.
Regarding `CSCC[C@H](NC(=O)c1ccc(COCCc2ccccc2Cl)cc1-c1ccccc1C)C(=O)[O-].[Li+]` [Example 588], the “% inhibition of farnesyltransferase at 1 × 10^-8 M” value is listed as 68%.
On the same count and under the same terms, then `CSCC[C@H](NC(=O)c1ccc(CN[C@H](CSc2ccccc2C)CC2CCCCC2)cc1-c1ccccc1C)C(=O)O` [Example 767], with 97%; and `CSCC[C@H](NC(=O)c1ccc(CN(Cc2ccccc2)c2ccc(C(F)(F)F)cc2)cc1-c1ccccc1C)C(=O)O` [Example 853], with 85%.
Still for that read-out and setting: under `CSCC[C@H](NC(=O)c1ccc(CN[C@@H](CC2CCCCC2)C(=O)N2CCCCC2)cc1-c1ccccc1C)C(=O)O` [Example 887] stands 92%.

The same test, now with this note: Table 6, * = 0.1 μM (footnote); title prints 0.1 mM.
The % inhibition is the change of the read-out against control, counted positive when it falls. A low value points to little suppression. As to `CCCCN(CCN1CCCCC1)Cc1ccc(C(=O)N[C@@H](CCSC)C(=O)O)c(-c2ccccc2C)c1` [Example 1196], the “% inhibition at 0.1 μM (*)” value was determined as 87%.

Still in this test, the particulars now being: read-out: % inhibition at 0.01 μM (**); Table 6, ** = 0.01 μM (footnote); title prints 0.01 mM.
Usually inhibition stands for the percentage by which the read-out fell short of the control. For `CCCCN(CC1CCCCC1)OCc1ccc(C(=O)N[C@@H](CCSC)C(=O)O)c(-c2ccccc2C)c1` [Example 1186], the inhibition at 0.01 µM amounted to 93%.

The test is the same for the next values; noted with them: read-out: % inhibition of farnesyltransferase at 1 × 10^-6 M; 1 × 10^-6 M (Table 2).
In the case of `Cc1ccccc1-c1cc(CN(C)C(C)(C)CC2CCCCC2)ccc1C(=O)N[C@@H](CCS(C)(=O)=O)C(=O)O` [Example 314], the inhibition at 1 µM was determined as 97%.
`CSCC[C@H](NC(=O)c1ccc(CN(C(C)C)C2(CC3CCCCC3)CCCC2)cc1-c1ccccc1C)C(=O)O` [Example 344]: the inhibition at 1 µM stood at 95%.
The same measure, in the same setting: then `CSCC[C@H](NC(=O)c1ccc(CCc2cccc3ccccc23)cc1-c1ccccc1C)C(=O)O` [Example 467, N-[4-(2-naphth-1-ylethyl)-2-(2-methylphenyl)benzoyl]methionine lithium salt], with 97%; and `CSCC[C@H](NC(=O)c1ccc(S(=O)(=O)N(Cc2ccccc2)c2ccccc2)cc1-c1ccccc1C)C(=O)O` [Example 768, N-[4-(N-Benzyl-N-phenylaminosulfonyl)-2-(2-methylphenyl)benzoyl]methionine lithium salt], with 67%.
Same read-out and setting: then `CSCC[C@H](NC(=O)c1ccc(/C=C/c2ccc(Oc3ccccc3)nn2)cc1-c1ccccc1C)C(=O)O` [Example 810, N-[4-(2-(3-phenoxypyridazin-6-yl)ethen-1-yl)-2-(2-methylphenyl)benzoyl]methionine lithium salt], with 89%.

The test is the same for the next values; noted with them: read-out: % inhibition of farnesyltransferase at 1 × 10^-7 M; 1 × 10^-7 M (Table 3).
Turning to `CSCC[C@H](NC(=O)c1ccc(C=Cc2cncs2)cc1-c1ccccc1C)C(=O)O` [Example 785, N-[4-(2-(thiazol-5-yl)ethen-1-yl)-2-(2-methylphenyl)benzoyl]methionine lithium salt], the inhibition at 0.1 µM worked out at 96%.
The same measure, in the same setting: under `CSCC[C@H](NC(=O)c1ccc(CN2CCCC(OCC3CCCCC3)C2)cc1-c1ccccc1C)C(=O)O` (stereo partly shown) [Example 990, N-[4-(3-cyclohexylmethoxypiperidin-1-ylmethyl)-2-(2-methylphenyl)benzoyl]methionine] stands 84%; under `CSCC[C@H](NC(=O)c1ccc(/C=C/c2ccc(Oc3cccc([N+](=O)[O-])c3)cc2)cc1-c1ccccc1C)C(=O)O` [Example 861, N-[4-(2-(4-(3-nitrophenoxy)phenyl)ethen-1-yl)-2-(2-methylphenyl)benzoyl]methioziine], 65%; under `CSCC[C@H](NC(=O)c1ccc(/C=C/c2ccc(Oc3ccccc3Cl)cc2)cc1-c1ccccc1C)C(=O)O` [Example 854, N-[4-(2-(4-(2-chlorophenoxy)phenyl)ethen-1-yl)-2-(2-methylphenyl)benzovyl]methionine], 78%.
